Assay results from the NIST ThermoML archive (doi:10.1021/je900124n).
Values joined by “and” are separate entries in the source; they are usually repeats but may differ in a detail not shown here. Equal values may be shown once.

Settings: Fluid (supercritical or subcritical phases), Buoyancy - hydrostatic balance with magnetic suspension - two sinkers

CCC [propane]
Settings | mass density
369.83 K, 4284.6 kPa | 281.214 kg/m3 and 281.229 kg/m3 and 281.215 kg/m3
369.83 K, 4284.7 kPa | 281.219 kg/m3 and 281.22 kg/m3
369.83 K, 4985.9 kPa | 337.354 kg/m3 and 337.357 kg/m3
369.83 K, 4986 kPa | 337.358 kg/m3 and 337.357 kg/m3
369.83 K, 4986.1 kPa | 337.356 kg/m3 and 337.357 kg/m3
369.83 K, 8381.5 kPa | 391.64 kg/m3
369.83 K, 8382 kPa | 391.644 kg/m3 and 391.642 kg/m3 and 391.641 kg/m3
369.83 K, 8382.2 kPa | 391.644 kg/m3
369.83 K, 8382.4 kPa | 391.643 kg/m3
369.83 K, 8382.6 kPa | 391.644 kg/m3
369.85 K, 311.85 kPa | 4.5865 kg/m3 and 4.5866 kg/m3
369.85 K, 311.86 kPa | 4.5867 kg/m3
369.85 K, 554.46 kPa | 8.3301 kg/m3 and 8.3303 kg/m3
369.85 K, 927.78 kPa | 14.4328 kg/m3 and 14.4326 kg/m3
369.85 K, 927.79 kPa | 14.4329 kg/m3
369.85 K, 1387.4 kPa | 22.6395 kg/m3 and 22.6384 kg/m3 and 22.6393 kg/m3
369.85 K, 1387.5 kPa | 22.64 kg/m3 and 22.6401 kg/m3
369.85 K, 2120.4 kPa | 37.8404 kg/m3 [middle of 5 runs]
369.85 K, 2871.7 kPa | 57.8231 kg/m3
369.85 K, 2871.8 kPa | 57.8298 kg/m3 and 57.8251 kg/m3
369.85 K, 3827.6 kPa | 100.815 kg/m3 and 100.816 kg/m3
369.85 K, 3827.7 kPa | 100.817 kg/m3
369.85 K, 4188.1 kPa | 146.906 kg/m3
369.85 K, 4188.2 kPa | 146.91 kg/m3
369.85 K, 4188.3 kPa | 146.915 kg/m3 and 146.912 kg/m3
369.85 K, 4188.4 kPa | 146.917 kg/m3
369.85 K, 4241.5 kPa | 177.435 kg/m3
369.85 K, 4241.8 kPa | 177.526 kg/m3 and 177.58 kg/m3 and 177.506 kg/m3
369.85 K, 4241.9 kPa | 177.65 kg/m3
369.85 K, 4248.2 kPa | 218.49 kg/m3 and 218.749 kg/m3 and 220.705 kg/m3
369.85 K, 4248.3 kPa | 224.686 kg/m3 and 220.268 kg/m3
369.85 K, 4248.4 kPa | 235.513 kg/m3 and 235.434 kg/m3
369.85 K, 4248.6 kPa | 231.541 kg/m3 and 236.898 kg/m3
369.85 K, 4258.6 kPa | 265.216 kg/m3 and 265.238 kg/m3
369.85 K, 4258.7 kPa | 265.211 kg/m3
369.85 K, 4372.9 kPa | 299.086 kg/m3
369.85 K, 4373 kPa | 299.075 kg/m3
369.85 K, 4373.1 kPa | 299.089 kg/m3
369.85 K, 4373.2 kPa | 299.082 kg/m3
369.85 K, 5012.2 kPa | 338.098 kg/m3
369.85 K, 5012.3 kPa | 338.097 kg/m3
369.85 K, 5012.5 kPa | 338.099 kg/m3
369.85 K, 5012.6 kPa | 338.102 kg/m3
369.85 K, 5520.1 kPa | 352.211 kg/m3
369.85 K, 5520.4 kPa | 352.212 kg/m3
369.86 K, 554.46 kPa | 8.3303 kg/m3 and 8.3302 kg/m3
369.86 K, 927.79 kPa | 14.4327 kg/m3 and 14.4326 kg/m3
369.86 K, 4248.7 kPa | 234.526 kg/m3
369.86 K, 4258.8 kPa | 265.251 kg/m3 and 265.229 kg/m3
369.86 K, 5520.6 kPa | 352.209 kg/m3 and 352.21 kg/m3
369.93 K, 4252.7 kPa | 197.999 kg/m3 and 197.778 kg/m3
369.93 K, 4252.8 kPa | 198.048 kg/m3 [middle of 4 runs]
369.93 K, 4252.9 kPa | 197.901 kg/m3
369.93 K, 4253.8 kPa | 232.64 kg/m3
369.93 K, 4253.9 kPa | 232.539 kg/m3
369.93 K, 4254 kPa | 231.862 kg/m3 [middle of 5 runs]
369.93 K, 4255 kPa | 244.442 kg/m3 [middle of 4 runs]
369.93 K, 4255.1 kPa | 244.551 kg/m3 and 244.556 kg/m3
369.93 K, 4255.2 kPa | 244.584 kg/m3 and 244.7 kg/m3
369.95 K, 4248.2 kPa | 177.636 kg/m3
369.95 K, 4248.3 kPa | 177.67 kg/m3 and 177.631 kg/m3 and 177.707 kg/m3
369.95 K, 4248.4 kPa | 177.657 kg/m3
369.95 K, 4255.7 kPa | 214.994 kg/m3 and 214.812 kg/m3 and 213.928 kg/m3
369.95 K, 4255.8 kPa | 214.794 kg/m3 and 214.471 kg/m3
369.95 K, 4256.2 kPa | 231.389 kg/m3
369.95 K, 4256.3 kPa | 231.791 kg/m3 and 231.342 kg/m3
369.95 K, 4256.4 kPa | 233.445 kg/m3 and 231.817 kg/m3
369.95 K, 4268 kPa | 265.209 kg/m3 and 265.217 kg/m3 and 265.193 kg/m3
369.95 K, 4268.2 kPa | 265.233 kg/m3
369.96 K, 4268.2 kPa | 265.215 kg/m3
370.03 K, 4259.9 kPa | 197.023 kg/m3 and 197.111 kg/m3 and 197.064 kg/m3
370.03 K, 4260 kPa | 197.186 kg/m3 [middle of 4 runs]
370.03 K, 4260.1 kPa | 197.3 kg/m3
370.03 K, 4261.6 kPa | 225.827 kg/m3 and 225.421 kg/m3 and 225.472 kg/m3
370.03 K, 4261.7 kPa | 225.904 kg/m3 and 225.809 kg/m3 and 225.73 kg/m3
370.03 K, 4261.8 kPa | 225.954 kg/m3 and 225.938 kg/m3
370.03 K, 4263.3 kPa | 244.173 kg/m3 and 244.096 kg/m3
370.03 K, 4263.4 kPa | 244.149 kg/m3 and 244.214 kg/m3
370.03 K, 4263.5 kPa | 244.309 kg/m3 and 244.177 kg/m3 and 244.274 kg/m3
370.03 K, 4263.6 kPa | 244.294 kg/m3
370.05 K, 4254.8 kPa | 177.712 kg/m3 and 177.662 kg/m3
370.05 K, 4254.9 kPa | 177.695 kg/m3 and 177.74 kg/m3 and 177.673 kg/m3
370.05 K, 4263.2 kPa | 211.406 kg/m3 and 211.212 kg/m3
370.05 K, 4263.4 kPa | 211.466 kg/m3 and 212.306 kg/m3 and 211.429 kg/m3
370.05 K, 4264.2 kPa | 229.256 kg/m3 and 228.799 kg/m3
370.05 K, 4264.3 kPa | 229.262 kg/m3 and 229.062 kg/m3
370.05 K, 4277.5 kPa | 265.204 kg/m3 [middle of 4 runs]
370.05 K, 4277.6 kPa | 265.242 kg/m3
370.06 K, 4264.4 kPa | 229.28 kg/m3
370.32 K, 4281.1 kPa | 196.636 kg/m3
370.32 K, 4281.2 kPa | 196.743 kg/m3 and 196.797 kg/m3 and 196.727 kg/m3
370.32 K, 4281.3 kPa | 196.729 kg/m3
370.33 K, 4212.1 kPa | 146.689 kg/m3 and 146.681 kg/m3
370.33 K, 4212.2 kPa | 146.684 kg/m3 [middle of 5 runs]
370.33 K, 4281.2 kPa | 196.669 kg/m3
370.33 K, 4281.3 kPa | 197.033 kg/m3 and 196.772 kg/m3
370.33 K, 4284.6 kPa | 220.89 kg/m3
370.33 K, 4284.7 kPa | 220.777 kg/m3 and 220.874 kg/m3 and 220.88 kg/m3
370.33 K, 4284.8 kPa | 221.028 kg/m3 and 221.044 kg/m3 and 221.077 kg/m3
370.33 K, 4284.9 kPa | 221.146 kg/m3
370.33 K, 4288.5 kPa | 243.759 kg/m3 and 243.744 kg/m3 and 243.764 kg/m3
370.33 K, 4288.6 kPa | 243.866 kg/m3 [middle of 5 runs]
370.35 K, 4214.3 kPa | 147.029 kg/m3 [middle of 5 runs]
370.35 K, 4274.3 kPa | 177.77 kg/m3 and 177.777 kg/m3
370.35 K, 4274.4 kPa | 177.843 kg/m3 and 177.765 kg/m3 and 177.808 kg/m3
370.35 K, 4285.7 kPa | 209.496 kg/m3 [middle of 4 runs]
370.35 K, 4285.8 kPa | 209.659 kg/m3
370.35 K, 4287.8 kPa | 228.296 kg/m3
370.35 K, 4287.9 kPa | 227.176 kg/m3 and 227.342 kg/m3
370.35 K, 4288 kPa | 227.25 kg/m3
370.35 K, 4305.9 kPa | 265.204 kg/m3
370.35 K, 4306 kPa | 265.214 kg/m3 and 265.193 kg/m3
370.35 K, 4306.1 kPa | 265.222 kg/m3
370.36 K, 4288 kPa | 227.268 kg/m3
370.36 K, 4306.1 kPa | 265.199 kg/m3
370.82 K, 4238.2 kPa | 146.893 kg/m3
